According to patent US8129398B2 (priority 2008, dated 2012):

target: T1, HIV-integrase (Human immunodeficiency virus type 1 group M subtype B, UniProt P12497); experiment: HIV-Integrase Inhibition Activity (SPA bead integration assay with P33 labeled target DNA); type: biochemical; details: recombinant integrase, class symbols; read-out: in vitro activity
T1 construct: Recombinant integrase (0.26 ng) was incubated with the beads
Experimental: HIV-Integrase Inhibition Activity. To evaluate in-vitro activity against HIV-integrase, 5 pmole of biotin labeled substrate DNA was bound to 100 μg of Streptavidin coated PVT SPA beads (Amersham Pharmacia Biotech). Recombinant integrase (0.26 ng) was incubated with the beads for 90 min at 37° C. Unbound enzyme was removed by washing the complex followed by addition of inhibitors and 0.1 fmol of P33 labeled target DNA. The reaction was stopped by adding EDTA to a final concentration of 10 mM. Samples were counted in TopCountNXT (Packard) and the CPM was used as a measure of integration. The reaction condition was as described in A. Engelman and R. Craigie, J. Virol. 69, 5908-5911 (1995). The sequences of substrate and target DNA were described in Nucleic Acid Research 22, 1121-1122 (1994). Activity equal to A refers to a compound having IC50=<10 nM while B and C denote compounds having […] and IC50>100 nM respectively.

Compound | IC50 [nM]
CO[C@H]1C[C@@H](C(=O)NC23CCC(CC2)Cn2c3nc(C(=O)NCc3ccc(F)c(C)c3)c(O)c2=O)N(C(=O)c2cc(C)on2)C1 [Example 296, 7,10-Ethanopyrimido[1,2-a]azepine-2-carboxamide, N-[(4-fluoro-3-methylphenyl)methyl]-4,6,7,8,9,10-hexahydro-3-hydroxy-10-[[[(2S,4S)-4-methoxy-1-[(5-methyl-3-isoxazolyl)carbonyl]-2-pyrrolidinyl]carbonyl]amino]-4-oxo-] | < 10
O=C1CC[C@@H](C(=O)NC23CCC(CC2)Cn2c3nc(C(=O)NCc3ccc(F)cc3)c(O)c2=O)N1 [Example 46, N-(4-Fluorobenzyl)-3-hydroxy-4-oxo-10-((5-oxoprolyl)amino)-4,6,7,8,9,10-hexahydro-7,10-ethanopyrimido[1,2-a]azepine-2-carboxamide] | < 10
CC(=O)N[C@H]1CCN(C(=O)C(=O)NC23CCC(CC2)Cn2c3nc(C(=O)NCc3ccc(F)cc3)c(O)c2=O)C1 [Example 68, 10-((((3S)-3-(Acetylamino)-1-pyrrolidinyl) (oxo)acetyl)amino)-N-(4-fluorobenzyl)-3-hydroxy-4-oxo-4,6,7,8,9,10-hexahydro-7,10-ethanopyrimido[1,2-a]azepine-2-carboxamide] | < 10
O=C(NC12CCC(CC1)Cn1c2nc(C(=O)NCc2ccc(F)cc2)c(O)c1=O)c1ccnc(OCC(F)(F)F)c1 [Example 316, 7,10-Ethanopyrimido[1,2-a]azepine-2-carboxamide, N-[(4-fluorophenyl)methyl]-4,6,7,8,9,10-hexahydro-3-hydroxy-4-oxo-10-[[[2-(2,2,2-trifluoroethoxy)-4-pyridinyl]carbonyl]amino]-] | < 10
O=C(NCc1ccc(F)cc1)c1nc2n(c(=O)c1O)CC1CCC2(NC(=O)[C@H]2CCCN2)CC1 [Example 252, 7,10-Ethanopyrimido[1,2-a]azepine-2-carboxamide, N-[(4-fluorophenyl)methyl]-4,6,7,8,9,10-hexahydro-3-hydroxy-4-oxo-10-[[(2R)-2-pyrrolidinylcarbonyl]amino]-] | 10 to 100
CC1(C)[C@@H]2CC[C@@]1(C)[C@@H](N)c1nc(C(=O)NCc3ccc(F)cc3)c(O)c(=O)n1C2 [Example 182, (7S,10R,11R)-11-Amino-N-(4-fluorobenzyl)-3-hydroxy-10,12,12-trimethyl-4-oxo-6,7,8,9,10,11-hexahydro-4H-7,10-methanopyrimido[1,2-a]azocine-2-carboxamide] | > 100
Cn1nnnc1C(=O)NC12CCC(CC1)Cn1c2nc(C(=O)NCc2ccc(F)cc2)c(O)c1=O [Example 249, 7,10-Ethanopyrimido[1,2-a]azepine-2-carboxamide, N-[(4-fluorophenyl)methyl]-4,6,7,8,9,10-hexahydro-3-hydroxy-10-[[(1-methyl-1H-tetrazol-5-yl)carbonyl]amino]-4-oxo-] | < 10
CN(C)C(=O)C(=O)NC12CCC(C)(CC1)Cn1c2nc(C(=O)NCc2ccc(F)cc2)c(O)c1=O [Example 180, Ethanediamide, N′-[2-[[[(4-fluorophenyl)methyl]amino]carbonyl]-6,7,8,9-tetrahydro-3-hydroxy-7-methyl-4-oxo-7,10-ethanopyrimido[1,2-a]azepin-10(4H)-yl]-N,N-dimethyl-] | < 10
CN(C)C(=O)C(=O)NC12CCC(CC1)Cn1c2nc(C(=O)NCC(c2ccccc2)c2ccccc2)c(O)c1=O [Example 340] | > 100
O=C(NCc1ccc(F)cc1)c1nc2n(c(=O)c1O)CC1CCC2(NC(=O)C2CCCN2S(=O)(=O)c2ncn[nH]2)CC1 (centres unmarked) [Example 409] | < 10
CN(C)C(=O)C(=O)N(C)C12CCC(CC1)Cn1c2nc(C(=O)NCc2ccc3c(c2)OCO3)c(O)c1=O [Example 161, N-(2-((1,3-Benzodioxol-5-ylmethyl)carbamoyl)-3-hydroxy-4-oxo-6,7,8,9-tetrahydro-7,10-ethanopyrimido[1,2-a]azepin-10(4H)-yl)-N,N′,N′-trimethylethanediamide] | < 10
CO[C@H]1C[C@@H](C(=O)NC23CCC(CC2)Cn2c3nc(C(=O)NCc3ccc(F)cc3)c(O)c2=O)N(C(C)=O)C1 [Example 271, 7,10-Ethanopyrimido[1,2-a]azepine-2-carboxamide, 10-[[[(2S,4S)-1-acetyl-4-methoxy-2-pyrrolidinyl]carbonyl]amino]-N-[(4-fluorophenyl)methyl]-4,6,7,8,9,10-hexahydro-3-hydroxy-4-oxo-] | < 10
COCCN(C)C(=O)C(=O)N(C)C12CCC(CC1)Cn1c2nc(C(=O)NCc2ccc(F)c(C)c2)c(O)c1=O [Example 168, N-(2-((4-Fluoro-3-methylbenzyl)carbamoyl)-3-hydroxy-4-oxo-6,7,8,9-tetrahydro-7,10-ethanopyrimido[1,2-a]azepin-10(4H)-yl)-N′-(2-methoxyethyl)-N,N′-dimethylethanediamide] | < 10
C=C[C@@H]1C[C@]1(NS(C)(=O)=O)C(=O)NC12CCC(CC1)Cn1c2nc(C(=O)NCc2ccc(F)cc2)c(O)c1=O [Example 278, 7,10-Ethanopyrimido[1,2-a]azepine-2-carboxamide, 10-[[[(1R,2S)-2-ethenyl-1-[(methylsulfonyl)amino]cyclopropyl]carbonyl]amino]-N-[(4-fluorophenyl)methyl]-4,6,7,8,9,10-hexahydro-3-hydroxy-4-oxo-] | < 10
CNC(=O)C(=O)NC12CCC(Cn3c1nc(C(=O)NCc1ccc(F)cc1)c(O)c3=O)C2 (centres unmarked) [Example 193, Ethanediamide, N-[2-[[[(4-fluorophenyl)methyl]amino]carbonyl]-6,7,8,9-tetrahydro-3-hydroxy-4-oxo-7,10-methanopyrimido[1,2-a]azepin-10(4H)-yl]-N′-methyl-] | < 10
Cc1cc(CNC(=O)c2nc3n(c(=O)c2O)CC2CCC3(N(C)C(=O)C(=O)N3CC[C@@H](F)C3)CC2)ccc1F [Example 164, N-(4-Fluoro-3-methylbenzyl)-10-((((3R)-3-fluoro-1-pyrrolidinyl)(oxo)acetyl)(methyl)amino)-3-hydroxy-4-oxo-4,6,7,8,9,10-hexahydro-7,10-ethanopyrimido[1,2-a]azepine-2-carboxamide] | < 10
CN(C)C(=O)C(=O)NC12CCC(CC1)Cn1c2nc(C(=O)NCc2ccc(N(C)C)cc2)c(O)c1=O [Example 378] | 10 to 100
Cc1ccccc1CNC(=O)c1nc2n(c(=O)c1O)CC1CCC2(NC(=O)C(=O)N(C)C)CC1 [Example 370] | < 10
O=C(NCc1ccc(F)cc1)c1nc2n(c(=O)c1O)CC1CCC2(NC(=O)C2CCOC2)CC1 (centres unmarked) [Example 238, 7,10-Ethanopyrimido[1,2-a]azepine-2-carboxamide, N-[(4-fluorophenyl)methyl]-4,6,7,8,9,10-hexahydro-3-hydroxy-4-oxo-10-[[(tetrahydro-3-furanyl)carbonyl]amino]-] | < 10
O=C(NC12CCC(CC1)Cn1c2nc(C(=O)NCc2ccc(F)cc2)c(O)c1=O)C(=O)N1CCN(C(=O)c2cccs2)CC1 [Example 142, N-(4-Fluorobenzyl)-3-hydroxy-4-oxo-10-((oxo(4-(2-thiophenylcarbonyl)-1-piperazinyl)acetyl)amino)-4,6,7,8,9,10-hexahydro-7,10-ethanopyrimido[1,2-a]azepine-2-carboxamide] | < 10
CN(C(=O)c1cccnc1)C12CCC(CC1)Cn1c2nc(C(=O)NCc2ccc(F)cc2)c(O)c1=O [Example 322, 7,10-Ethanopyrimido[1,2-a]azepine-2-carboxamide, N-[(4-fluorophenyl)methyl]-4,6,7,8,9,10-hexahydro-3-hydroxy-10-[methyl(3-pyridinylcarbonyl)amino]-4-oxo] | < 10
O=C1C[C@@H](C(=O)NC23CCC(CC2)Cn2c3nc(C(=O)NCc3ccc(F)cc3)c(O)c2=O)N1 [Example 264, 7,10-Ethanopyrimido[1,2-a]azepine-2-carboxamide, N-[(4-fluorophenyl)methyl]-4,6,7,8,9,10-hexahydro-3-hydroxy-4-oxo-10-[[[(2S)-4-oxo-2-azetidinyl]carbonyl]amino]-] | < 10
CN(C)C(=O)C(=O)NC12CCC(CC1)Cn1c2nc(C(=O)NCCc2cccs2)c(O)c1=O [Example 354] | 10 to 100
Cn1nc(C(C)(C)C)cc1C(=O)NC12CCC(CC1)n1c2nc(C(=O)NCc2ccc(F)cc2)c(O)c1=O [Example 15, 6,9-Ethano-4H-pyrido[1,2-a]pyrimidine-2-carboxamide, 9-[[[3-(1,1-dimethylethyl)-1-methyl-1H-pyrazol-5-yl]carbonyl]amino]-N-[(4-fluorophenyl)methyl]-6,7,8,9-tetrahydro-3-hydroxy-4-oxo-] | < 10
CNC(=S)NC12CCC(CC1)Cn1c2nc(C(=O)NCc2ccc(F)cc2)c(O)c1=O [Example 331, 7,10-Ethanopyrimido[1,2-a]azepine-2-carboxamide, N-[(4-fluorophenyl)methyl]-4,6,7,8,9,10-hexahydro-3-hydroxy-10-[[(methylamino)thioxomethyl]amino]-4-oxo-] | < 10
Cc1cc(CNC(=O)c2nc3n(c(=O)c2O)CC2CCC3(N(C)C(=O)C(=O)N(C)C)CC2)ccc1F [Example 156, N-(2-((4-Fluoro-3-methylbenzyl)carbamoyl)-3-hydroxy-4-oxo-6,7,8,9-tetrahydro-7,10-ethanopyrimido[1,2-a]azepin-10(4H)-yl)-N,N′,N′-trimethylethanediamide] | < 10
